Measured values as given in US7304050B2, “Antibacterial agents” (Pfizer Inc., priority 2003, dated 2007).
Values after ≈ are worked out from the molar mass of the structure shown.

Key:
[1] = tested on: E. coli Tol C; assay: Antibacterial assay (Test A), microtitration MIC, Gram negative; type: cell-based; conditions: Escherichia coli, read-out: Minimum Inhibitory Concentrations E. coli Tol C
Procedure: (§1) The compounds of the present invention were tested against an assortment of Gram-negative and Gram-positive organisms using standard microtitration techniques (Cohen et. al., Antimicrob., 1985;28:766;Heifetz, et. al., Antimicrob., 1974;6: 124).

[2] = tested on: H. influenzae HI3542; assay: as above; type: cell-based; conditions: Haemophilus influenzae; Gram Negative Bacteria; strain HI3542; read-out: Minimum Inhibitory Concentrations H. influenzae HI3542
Procedure: as §1

[3] = tested on: M. catarrhalis BC3534; assay: as above; type: cell-based; conditions: Moraxella catarrhalis; Gram Negative Bacteria; strain BC3534; read-out: Minimum Inhibitory Concentrations M. catarrhalis BC3534
Procedure: as §1

[4] = tested on: E. faecalis MGH-2; assay: Antibacterial assay (Test A), microtitration MIC, Gram positive; type: cell-based; conditions: Enterococcus faecalis, MGH2; Gram Positive Bacteria; strain MGH-2; read-out: Minimum Inhibitory Concentrations E. faecalis MGH-2
Procedure: as §1

[5] = tested on: S pyogenes C203; assay: as above; type: cell-based; conditions: Gram Positive Bacteria; strain C203; read-out: Minimum Inhibitory Concentrations S pyogenes C203
Procedure: as §1

[6] = tested on: S. aureus UC-76; assay: as above; type: cell-based; conditions: Staphylococcus aureus, UC76; Gram Positive Bacteria; strain UC-76; read-out: Minimum Inhibitory Concentrations S. aureus UC-76
Procedure: as §1

[7] = tested on: E. coli transcription and translation (TnT); type: biochemical

| Compound | MIC [1] [µg/mL] | MIC [2] [µg/mL] | MIC [3] [µg/mL] | MIC [4] [µg/mL] | MIC [5] [µg/mL] | MIC [6] [µg/mL] | Inhibitory concentration in E. coli cell-free transcription/translation (TnT) assay [7] [µg/mL] |
| --- | --- | --- | --- | --- | --- | --- | --- |
| CC(=O)NC[C@H]1CN(c2ccc3c(c2)CCCN(c2cc4c(cc2F)c(=O)c(C(=O)O)cn4C2CC2)C3)C(=O)O1 [Example 16, 7-{7-[5-(Acetylamino-methyl)-2-oxo-oxazolidin-3-yl]-1,3,4,5-tetrahydro-benzo[c]azepin-2-yl}-1-cyclopropyl-6-fluoro-4-oxo-1,4-dihydro-quinolne-3-carboxylic Acid] | 64 (≈ 117 µM) | 0.125 (≈ 0.228 µM) | 16 (≈ 29.2 µM) | 32 (≈ 58.3 µM) | 4 (≈ 7.29 µM) | 8 (≈ 14.6 µM) | 10 |
| COc1c(N2CCc3ccc(N4C[C@H](CNC(C)=O)OC4=O)cc3CC2)c(F)c(C)c2c(=O)c(C(=O)O)cn(C3CC3)c12 [Example 6, 7-{7-[5-(Acetylamino-methyl)-2-oxo-oxazolidin-3-yl]-1,2,4,5-tetrahydro-benzo[d]azepin-3-yl}-1-cyclopropyl-6-fluoro-8-methoxy-5-methyl-4-oxo-1,4-dihydro-quinoline-3-carboxylic Acid] | 2 (≈ 3.37 µM) | 0.06 (≈ 0.101 µM) | 0.13 (≈ 0.219 µM) | 0.25 (≈ 0.422 µM) | 0.25 (≈ 0.422 µM) | 0.06 (≈ 0.101 µM) | 9.6 |
| COc1c(N2CCc3ccc(N4C[C@H](CNC(C)=O)OC4=O)cc3CC2)c(F)cc2c(=O)c(C(=O)O)cn(C3CC3)c12 [Example 7, 7-{7-[5-(Acetylamino-methyl)-2-oxo-oxazolidin-3-yl]-1,2,4,5-tetrahydro-benzo[d]azepin-3-yl}-1-cyclopropyl-6-fluoro-8-methoxy-4-oxo-1,4-dihydro-quinoline-3-carboxylic Acid] | 2 (≈ 3.46 µM) | 0.06 (≈ 0.104 µM) | 0.25 (≈ 0.432 µM) | 0.5 (≈ 0.864 µM) | 1 (≈ 1.73 µM) | 0.06 (≈ 0.104 µM) | 11.8 |
| COc1c(N2CCCc3cc(N4C[C@H](CNC(C)=O)OC4=O)ccc3C2)c(F)c(C)c2c(=O)c(C(=O)O)cn(C3CC3)c12 (stereo in doubt) [Example 2, 7-{7-[5-(Acetylamino-methyl)-2-oxo-oxazolidin-3-yl]-1,3,4,5-tetrahydro-benzo[c]azepin-2-yl}-1-cyclopropyl-6-fluoro-8-methoxy-5-methyl-4-oxo-1,4-dihydro-quinoline-3-carboxylic Acid] | 16 (≈ 27 µM) | 0.06 (≈ 0.101 µM) | 8 (≈ 13.5 µM) | 8 (≈ 13.5 µM) | 8 (≈ 13.5 µM) | 0.06 (≈ 0.101 µM) | 9.6 |
| CC(=O)NC[C@H]1CN(c2ccc3c(c2)CCCN(c2c(F)cc4c(=O)c(C(=O)O)cn(C5CC5)c4c2Cl)C3)C(=O)O1 [Example 1, 7-{7-[5-(Acetylamino-methyl)-2-oxo-oxazolidin-3-yl]-1,3,4,5-tetrahydro-benzo[c]azepin-2-yl}-8-chloro-1-cyclopropyl-6-fluoro-4-oxo-1,4-dihydro-quinoline-3-carboxylic Acid] | 2 (≈ 3.43 µM) | 0.06 (≈ 0.103 µM) | 0.25 (≈ 0.429 µM) | 1 (≈ 1.72 µM) | 2 (≈ 3.43 µM) | 0.06 (≈ 0.103 µM) | 9.4 |
| CC(=O)NC[C@H]1CN(c2ccc3c(c2)CCCN(c2c(F)cc4c(=O)c(C(=O)O)cn(C5CC5)c4c2F)C3)C(=O)O1 (stereo in doubt) [Example 13, 7-{7-[5-(Acetylamino-methyl)-2-oxo-oxazolidin-3-yl]-1,3,4,5-tetrahydro-benzo[c]azepin-2-yl}-1-cyclopropyl-6,8-difluoro-4-oxo-1,4-dihydro-quinoline-3-carboxylic Acid] | 4 (≈ 7.06 µM) | 0.06 (≈ 0.106 µM) | 1 (≈ 1.77 µM) | 8 (≈ 14.1 µM) | 2 (≈ 3.53 µM) | 0.5 (≈ 0.883 µM) | 0.6 |
| CC(=O)NC[C@H]1CN(c2ccc3c(c2)CCN(c2nc4c(cc2F)c(=O)c(C(=O)O)cn4-c2ccc(F)cc2F)CC3)C(=O)O1 [Example 8, 7-{7-[5-(Acetylamino-methyl)-2-oxo-oxazolidin-3-yl]-1,2,4,5-tetrahydro-benzo[d]azepin-3-yl}-1-(2,4-difluoro-phenyl)-6-fluoro-4-oxo-1,4-dihydro-[1,8]naphthyridine-3-carboxylic Acid] | 2 (≈ 3.22 µM) | 0.06 (≈ 0.0965 µM) | 2 (≈ 3.22 µM) | 16 (≈ 25.7 µM) | 8 (≈ 12.9 µM) | 0.5 (≈ 0.804 µM) | 23.0 |
| CC(=O)NC[C@H]1CN(c2ccc3c(c2)CCCN(c2c(F)cc4c(=O)c(C(=O)O)cn5c4c2OCC5C)C3)C(=O)O1 (some centres unmarked) [Example 5, 9-{7-[5-(Acetylamino-methyl)-2-oxo-oxazolidin-3-yl]-1,3,4,5-tetrahydro-benzo[c]azepin-2-yl}-8-fluoro-3-methyl-6-oxo-2,3-dihydro-6 H-1-oxa-3a-aza-phenalene-5-carboxylic Acid] | 8 (≈ 14.2 µM) | 0.06 (≈ 0.106 µM) | 2 (≈ 3.54 µM) | 32 (≈ 56.7 µM) | 8 (≈ 14.2 µM) | 1 (≈ 1.77 µM) | 22.4 |
| CC(=O)NC[C@H]1CN(c2ccc3c(c2)CCN(c2nc4c(cc2F)c(=O)c(C(=O)O)cn4C2CC2)CC3)C(=O)O1 [Example 14, 7-{7-[5-(Acetylamino-methyl)-2-oxo-oxazolidin-3-yl]-1,2,4,5-tetrahydro-benzo[d]azepin-3-yl}-1-cyclopropyl-6-fluoro-4-oxo-1,4-dihydro-[1,8]naphthyridine-3-carboxylic Acid] | 16 (≈ 29.1 µM) | 0.06 (≈ 0.109 µM) | 2 (≈ 3.64 µM) | 16 (≈ 29.1 µM) | 8 (≈ 14.6 µM) | 0.5 (≈ 0.91 µM) | 15 |
| CC(=O)NC[C@H]1CN(c2ccc3c(c2)CCN(c2cc4c(cc2F)c(=O)c(C(=O)O)cn4C2CC2)CC3)C(=O)O1 [Example 9, 7-{7-[5-(Acetylamino-methyl)-2-oxo-oxazolidin-3-yl]-1,2,4,5-tetrahydro-benzo[d]azepin-3-yl}-1-cyclopropyl-6-fluoro-4-oxo-1,4-dihydro-quinoline-3-carboxylic Acid] | 4 (≈ 7.29 µM) | 0.06 (≈ 0.109 µM) | 0.5 (≈ 0.911 µM) | 8 (≈ 14.6 µM) | 4 (≈ 7.29 µM) | 0.13 (≈ 0.237 µM) | 13.0 |
| CC(=O)NC[C@H]1CN(c2ccc3c(c2)CCN(c2c(F)cc4c(=O)c(C(=O)O)cn(C5CC5)c4c2Cl)CC3)C(=O)O1 [Example 10, 7-{7-[5-(Acetylamino-methyl)-2-oxo-oxazolidin-3-yl]-1,2,4,5-tetrahydro-benzo[d]azepin-3-yl}-8-chloro-1-cyclopropyl-6-fluoro-4-oxo-1,4-dihydro-quinoline-3-carboxylic Acid] | 1 (≈ 1.72 µM) | 0.06 (≈ 0.103 µM) | 0.13 (≈ 0.223 µM) | 0.25 (≈ 0.429 µM) | 0.25 (≈ 0.429 µM) | 0.06 (≈ 0.103 µM) | 5.4 |
